What was measured:
Type in all cases: cell-based
[1] = test system: RBL-2H3; test: Degranulation promoting effect in RBL2H3 (β-hexosaminidase release)
Description: (§1) RBL-2H3 (hereinafter RBL2H3) was incubated in α-MEM (Invitrogen) supplemented with 10% fetal calf serum. Vector plasmid pcDNA3.1 for animal cell expression, in which the nucleotide sequence containing the initiation codon to the termination codon of human TGR12 (DNA having the nucleotide sequence represented by SEQ ID NO: 32) was incorporated, was stably expressed in RBL-2H3 to establish human TGR12-expressed RBL-2H3 cell line (hereinafter RBL2H3-TGR12). RBL2H3-TGR12 was incubated in α-MEM (Invitrogen) supplemented with 10% fetal calf serum and 200 μg/mL of Geneticin.
The degranulation promoting effect was determined as follows. RBL2H3 and RBL2H3-TGR12 were plated into a 96-well plate at a density of 40,000 cells/well and incubated overnight. Afterward the medium was discarded. […] The β-hexosaminidase activity in the supernatant for the degranulation assay was measured as follows to determine the degree of degranulation. The supernatant was dispensed into a 96-well plate and a 5-fold volume of 0.1M citrate (pH 4.5)/1 mM 4-methyl umbelliferyl-2-acetamido-2-deoxy-beta-D-glucopyranoside (Wako Pure Chemical) based on the volume of the supernatant was added thereto, followed by incubation at 37° C. for an hour. Subsequently, a 0.1-fold volume of 0.2 M glycine/NaCO3 (pH 10.7) based on the volume of the reaction solution was added to stop the reaction and the fluorescence was measured using Fusion-α (Perkin Elmer). For the β-hexosaminidase activity, the activity in the supernatant, which was obtained by likewise plating RBL2H3 and RBL2H3-TGR12GFP onto the plate, detaching the same with trypsin/EDTA, freeze-thawing 4 times and then centrifugation, was made the total β-hexosaminidase activity in LAD 2. The degree of degranulation was shown by a ratio of the β-hexosaminidase activity in the LAD 2 supernatant to the total β-hexosaminidase activity.

[2] = test system: RBL-2H3; test: Intracellular calcium increasing activity in RBL2H3 (FLIPR); parameters: unit not given here
Description: as §1
The intracellular calcium increasing activity was assayed as follows. RBL2H3 and RBL2H3-TGR12 were plated in a 96-well plate at a density of 40,000 cells/well and incubated overnight. The medium was then discarded and 100 μL/well of 4 μM Fluo3-AM (Dojin Kagaku)-containing assay buffer [Hank's Balanced Salt Solution (Invitrogen), 20 mM HEPES (Dojin Kagaku) and 2.5 mM Probenecid (Sigma)] was added. The mixture was allowed to stand for an hour at 37° C. Various TGR12 (Peptide Institute, Inc.) or calcium ionophore A23187 (Wako Pure Chemical) was diluted in 0.05% CHAPS-containing assay buffer. After the cells were washed with the assay buffer, fluorescence emitted with changes in intracellular calcium was measured using FLIPR (Molecular Device). A sample, 50 μL, was added at a rate of 50 μL/sec. 10 seconds after initiation of the assay. Fluorescence was measured every 1 second during the first 60 seconds and every 6 seconds during the next 120 seconds. The highest fluorescence intensity during 3 minutes was made the maximum activity under the stimulation conditions, which was taken as an average of 3 wells. The EC50 values were calculated using Graphpad PRISM 4 (Graphpad Software).

[3] = test system: human mast cell line LAD 2; test: Expression of TNF-α, CCL-2 or CCL-5 mRNA in LAD 2 (TaqMan PCR); settings: 1 μM
Description: Human mast cell line LAD 2 was cultured in StemPro-34 medium (Invitrogen) supplemented with 100 ng/mL of stem cell factor (Immuno-Biological Laboratories Co., Ltd.). […] A 750 μL aliquot was inoculated on a 24-well plate, which was then allowed to stand in a CO2 incubator at 37° C. for 30 minutes. […] The assay was performed for the respective reaction conditions in n=3. The plate was ice-chilled 0.5, 2, 8 and 24 hours after to stop the activation of LAD 2. After centrifugation at 300×g for 5 minutes, total RNA was extracted from the precipitated cells using RNeasy Mini Kit (Qiagen) according to the protocol attached. Further in the experiments where expression levels upon stimulation by various TGR12 ligands were analyzed, LAD 2 was centrifuged at 300×g for 5 minutes and the cells precipitated were counted and suspended in the medium at 1.33×10^6 cells/mL. A 750 μL aliquot was inoculated on a 24-well plate, which was allowed to stand in a CO2 incubator at 37° C. for 30 minutes. […] The assay was performed for the respective reaction conditions in n=3. Two hours after, the plate was ice-chilled to stop the activation of LAD 2. After centrifugation at 300×g for 5 minutes, total RNA was extracted from the precipitated cells using RNeasy Mini Kit (Qiagen) according to the protocol attached. The total RNA obtained as described above was concentrated using ethachinmate according to the protocol attached and dissolved in RNase-free H2O, Next, using the solution corresponding to […] of total RNA, reverse transcription was performed by the following procedure using SuperScript II reverse transcriptase (Invitrogen) to synthesize single stranded cDNA. To the total RNA solution, 0.1 μg of random primer (Invitrogen) and 1 μL of 10 mM dNTP (Invitrogen) were added and then RNase-free H2O was added to make the whole volume 12 μL. The mixture was then incubated at 70° C. for 10 minutes and ice-cooled for a minute. After 4 μL of 5× First-Strand Buffer (attached to SuperScript II reverse transcriptase), 2 μL of 0.1M DTT (attached to SuperScript II reverse transcriptase), 1 μL of RNaseOUT (Invitrogen) and 1 μL of SuperScript II reverse transcriptase were added, the mixture was incubated at 42° C. for 50 minutes, then at 70° C. for 15 minutes and ice-cooled for 5 minutes. The thus obtained cDNA was purified using ethachinmate in accordance with the protocol attached and dissolved in Tris-EDTA buffer (Fluka).
In TaqMan PCR below, hTNFalpha-tF (SEQ ID NO: 33) and hTNFalpha-tR (SEQ ID NO: 34) were used as primers for human TNF-α quantification, hTNFalpha-tP (SEQ ID NO: 35) as a probe and hTNFalpha-standard (SEQ ID NO: 36) as a standard. For human CCL-5 quantification, hCCL5-tF (SEQ ID NO: 37) and hCCL5-tR (SEQ ID NO: 38) were used as primers, hCCL5-tP (SEQ ID NO: 39) as a probe and hCCL5 standard (SEQ ID NO: 40) as a standard. For human CCL-2 quantification, hCCL2-tF (SEQ ID NO: 41) and hCCL2-tR (SEQ ID NO: 42) were used as primers, hCCL2-tP (SEQ ID NO: 43) as a probe and hCCL2 standard (SEQ ID NO: 44) as a standard.
TaqMan PCR was performed in n=2 for each sample in a liquid volume of 15 μl using 12.5 ng of total RNA as a template. The reaction solution was composed of 900 nM primer, 250 nM probe and ½ volume of TaqMan Universal PCR Master Mix (Applied Biosystems). The reaction and analysis were performed by ABI PRISM 7900HT Sequence Detection System (Applied Biosystems). After keeping warm at 50° C. for 2 minutes and then at 95° C. for 10 minutes, the reaction cycle was set in one cycle to include 95° C. for 15 seconds and 60° C. for 1 minute and repeating the cycle 40 times.

[4] = time course, 0.5 hours after the stimulation
[5] = time course, 2 hours after the stimulation
[6] = time course, 8 hours after the stimulation
[7] = time course, 24 hours after the stimulation
[8] = various TGR12 ligands experiment, two hours after stimulation

CSCC[C@H](NC(=O)[C@H](CC(C)C)NC(=O)CNC(=O)[C@H](Cc1ccccc1)NC(=O)[C@H](Cc1ccccc1)NC(=O)[C@H](CCC(N)=O)NC(=O)[C@H](CCC(N)=O)NC(=O)[C@@H]1CCCN1C(=O)[C@H](CCCCN)NC(=O)[C@@H]1CCCN1C(=O)[C@@H](N)CCCNC(=N)N)C(N)=O [substance P]
degranulation (β-hexosaminidase in supernatant to total) ([1]; RBL2H3, 10 nM): 8.8%
degranulation (β-hexosaminidase in supernatant to total) ([1]; RBL2H3, 30 nM): 8.9%
degranulation (β-hexosaminidase in supernatant to total) ([1]; RBL2H3, 100 nM): 8.9%
degranulation (β-hexosaminidase in supernatant to total) ([1]; RBL2H3, 300 nM): 8.5%
degranulation (β-hexosaminidase in supernatant to total) ([1]; RBL2H3, 1 μM): 8.4%
degranulation (β-hexosaminidase in supernatant to total) ([1]; RBL2H3, 3 μM): 7.9%
maximum activity in the calcium increasing effect ([2]; RBL2H3, 1 nM): 44
maximum activity in the calcium increasing effect ([2]; RBL2H3, 10 nM): 51
maximum activity in the calcium increasing effect ([2]; RBL2H3, 100 nM): 50
maximum activity in the calcium increasing effect ([2]; RBL2H3, 1 μM): 95
maximum activity in the calcium increasing effect ([2]; RBL2H3, 10 μM): 41
expression level of CCL-5 in LAD 2 [3, 4]: 38107 copies
expression level of TNF-α in LAD 2 [3, 4]: 56065 copies
expression level of CCL-5 in LAD 2 [3, 5]: 88872 copies
expression level of TNF-α in LAD 2 [3, 5]: 1346293 copies
expression level of CCL-5 in LAD 2 [3, 6]: 69921 copies
expression level of TNF-α in LAD 2 [3, 6]: 54313 copies
expression level of CCL-5 in LAD 2 [3, 7]: 53605 copies
expression level of TNF-α in LAD 2 [3, 7]: 4332 copies
expression level of CCL-2 in LAD 2 [3, 8]: 2694837 copies
expression level of CCL-5 in LAD 2 [3, 8]: 47117 copies
expression level of TNF-α in LAD 2 [3, 8]: 173462 copies

Source: US20100068208A1, “Degranulation inhibitor” (priority 2005, published 2010)
